The conditions of data set [1]: 101.33 kPa, Liquid, Vibrating tube method.
Data set [2] can be described thus: activity coefficient (dimensionless); of the first substance listed, at infinite dilution; xn = mol fraction of the nth substance listed. The settings on record: 101 kPa, Liquid, Chromatography, x1 = 0.

The structures appear in SMILES notation. ± gives the expanded uncertainty stated by the source.

A word on the mass density: it is the mass of a sample divided by its volume. On to `CCCC[n+]1cccc(C)c1.N#C[N-]C#N` [1-butyl-3-methylpyridinium dicyanamide], for which the mass density worked out at 1040.66 ± 2.1 kg/m3 in data set [1] (308.15 K); 1034.63 ± 2.1 kg/m3 in data set [1] (318.15 K); 1028.66 ± 2.1 kg/m3 in data set [1] (328.15 K); 1022.75 ± 2.1 kg/m3 in data set [1] (338.15 K); 1016.77 ± 2 kg/m3 in data set [1] (348.15 K); 1010.8 ± 2 kg/m3 in data set [1] (358.15 K).
Regarding `C1CCOC1` [tetrahydrofuran] + CCCC[n+]1cccc(C)c1.N#C[N-]C#N, the activity coefficient was determined as 1.38 ± 0.09 in data set [2] (308.15 K); 1.4 ± 0.09 in data set [2] (318.15 K); 1.43 ± 0.09 in data set [2] (328.15 K); 1.45 ± 0.1 in data set [2] (338.15 K); 1.47 ± 0.1 in data set [2] (348.15 K); 1.5 ± 0.1 in data set [2] (358.15 K). The activity coefficient in data set [2] (368.15 K) came out at 1.53 ± 0.1.
For the molecule `c1ccsc1` [thiophene] + CCCC[n+]1cccc(C)c1.N#C[N-]C#N, the activity coefficient in data set [2] (308.15 K) was found to be 0.822 ± 0.053; in data set [2] (318.15 K), 0.844 ± 0.054; in data set [2] (328.15 K), 0.868 ± 0.055; in data set [2] (338.15 K), 0.89 ± 0.057; in data set [2] (348.15 K), 0.911 ± 0.058; in data set [2] (358.15 K), 0.937 ± 0.059. In addition, the activity coefficient in data set [2] (368.15 K) worked out at 0.955 ± 0.06.
As for `Cc1ccccc1` [toluene] + CCCC[n+]1cccc(C)c1.N#C[N-]C#N, the activity coefficient came out at 2.01 ± 0.14 in data set [2] (328.15 K); 2.05 ± 0.14 in data set [2] (338.15 K); 2.1 ± 0.14 in data set [2] (348.15 K); 2.15 ± 0.15 in data set [2] (358.15 K); 2.2 ± 0.15 in data set [2] (368.15 K).
Consider `O` [water] + CCCC[n+]1cccc(C)c1.N#C[N-]C#N, for which the activity coefficient turned out to be 0.294 ± 0.031 in data set [2] (338.15 K), 0.302 ± 0.031 in data set [2] (348.15 K), 0.307 ± 0.031 in data set [2] (358.15 K) and 0.314 ± 0.031 in data set [2] (368.15 K).

For the origin of these results see the NIST ThermoML archive (doi:10.1016/j.jct.2013.09.007).
